Source: US20110039847A1, “AMIDE DERIVATIVES AS SIRTUIN MODULATORS” (Sirtris Pharmaceuticals, Inc, priority 2007, published 2011)
One block for each compound: values may come before it.

Molecular target: T1, SIRT1 (Homo sapiens, UniProt Q96EB6)
T1 sequence (Q96EB6 1-747): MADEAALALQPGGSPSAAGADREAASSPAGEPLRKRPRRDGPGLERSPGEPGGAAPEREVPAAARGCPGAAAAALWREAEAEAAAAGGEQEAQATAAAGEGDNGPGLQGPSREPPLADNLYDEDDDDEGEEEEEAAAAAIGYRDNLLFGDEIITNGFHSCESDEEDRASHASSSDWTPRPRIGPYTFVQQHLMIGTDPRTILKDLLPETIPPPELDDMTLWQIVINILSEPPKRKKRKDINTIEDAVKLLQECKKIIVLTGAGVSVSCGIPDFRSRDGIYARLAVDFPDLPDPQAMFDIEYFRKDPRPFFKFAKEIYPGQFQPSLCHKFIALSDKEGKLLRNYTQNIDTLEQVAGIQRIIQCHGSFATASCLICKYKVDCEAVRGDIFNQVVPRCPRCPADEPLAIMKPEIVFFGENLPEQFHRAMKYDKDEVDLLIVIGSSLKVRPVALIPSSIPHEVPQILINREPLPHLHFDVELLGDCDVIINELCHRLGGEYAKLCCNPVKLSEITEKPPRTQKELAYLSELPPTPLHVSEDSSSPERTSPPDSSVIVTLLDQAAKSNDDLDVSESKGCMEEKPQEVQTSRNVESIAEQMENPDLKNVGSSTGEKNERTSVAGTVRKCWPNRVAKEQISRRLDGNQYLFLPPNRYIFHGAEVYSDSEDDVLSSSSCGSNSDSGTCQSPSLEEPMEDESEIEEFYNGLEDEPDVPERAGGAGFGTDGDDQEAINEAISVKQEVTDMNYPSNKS
Assay: Mass spectrometry based SIRT1 deacetylation (activation) assay
Format: biochemical
Settings: 0.5 μM peptide substrate, 120 μM βNAD+, 10 nM SIRT1, 25 min at 25° C.; for Emax: 25 min, read-out: % Fold Act. (percent maximum fold activation)

Structure (SMILES): CCCCc1nnc(-c2ccccc2NC(=O)c2cc(NCCN(C)C)nc(-c3ccccc3)n2)s1 [Compound 61]
EC1.5: B (EC1.5>1 and ≦10 uM) | Emax: < 150%

Structure (SMILES): CN(C)CCNc1cc(C(=O)Nc2ccccc2-c2nnc(-c3ccccc3)s2)nc(-c2ccccc2)n1 [Compound 25]
EC1.5: A (EC1.5≦1 uM) | Emax: 150 to 300%

Structure (SMILES): CNCCN(C)c1cc(C(=O)Nc2ccccc2-c2nncs2)nc(-c2ccccc2)n1 [Compound 40]
EC1.5: A (EC1.5≦1 uM) | Emax: ≥ 300%

Structure (SMILES): CN(C)CCNc1cc(C(=O)Nc2ccccc2-c2nccs2)nc(-c2ccccc2)n1 [Compound 8]
EC1.5: A (EC1.5≦1 uM) | Emax: ≥ 300%

Structure (SMILES): Cc1csc(-c2ccccc2NC(=O)c2cc(NCCN(C)C)nc(-c3ccccc3)n2)n1 [Compound 7]
EC1.5: B (EC1.5>1 and ≦10 uM) | Emax: ≥ 300%

Structure (SMILES): CN(C)CCNc1cc(C(=O)Nc2ccccc2-c2ccccc2)nc(-c2ccccc2)n1 [Compound 2]
EC1.5: C (EC1.5>10 uM) | Emax: < 150%

Structure (SMILES): CCc1nnc(-c2ccccc2NC(=O)c2cc(N(C)CCNC)nc(-c3ccccc3)n2)s1 [Compound 52]
EC1.5: A (EC1.5≦1 uM) | Emax: 150 to 300%

Structure (SMILES): CN(C)CCNc1cc(C(=O)Nc2ccccc2-c2ncc(-c3ccccc3)s2)nc(-c2ccccc2)n1 [Compound 13]
EC1.5: A (EC1.5≦1 uM) | Emax: 150 to 300%

Structure (SMILES): CCc1nnc(-c2ccccc2NC(=O)c2cc(N(C)CCN(C)C)nc(-c3ccccc3)n2)s1 [Compound 56]
EC1.5: B (EC1.5>1 and ≦10 uM) | Emax: 150 to 300%

Structure (SMILES): CN(C)CCNc1cc(C(=O)Nc2ccccc2-c2ncc(C(C)(C)C)s2)nc(-c2ccccc2)c1 [Compound 29]
EC1.5: B (EC1.5>1 and ≦10 uM) | Emax: ≥ 300%

Structure (SMILES): CN(C)CCN(C)c1cc(C(=O)Nc2ccccc2-c2nnc(-c3ccccc3)s2)nc(-c2ccccc2)c1 [Compound 35]
EC1.5: A (EC1.5≦1 uM) | Emax: 150 to 300%

Structure (SMILES): CCN(CCN(C)C)c1cc(C(=O)Nc2ccccc2-c2ncc(C(C)(C)C)o2)nc(-c2ccccc2)c1 [Compound 43]
EC1.5: A (EC1.5≦1 uM) | Emax: ≥ 300%

Structure (SMILES): CNCCN(C)c1cc(C(=O)Nc2ccccc2-c2nnc(C3CCC3)s2)nc(-c2ccccc2)n1 [Compound 47]
EC1.5: A (EC1.5≦1 uM) | Emax: 150 to 300%

Structure (SMILES): CN(C)CCN(C)c1cc(C(=O)Nc2ccccc2-c2nnc(C3CCC3)s2)nc(-c2ccccc2)n1 [Compound 45]
EC1.5: A (EC1.5≦1 uM) | Emax: 150 to 300%

Structure (SMILES): CCOC(=O)c1nnc(-c2ccccc2NC(=O)c2cc(N(CC)CCN(C)C)nc(-c3ccccc3)n2)s1 [Compound 59]
EC1.5: A (EC1.5≦1 uM) | Emax: 150 to 300%

Structure (SMILES): O=C(Nc1ccccc1-c1ncc(-c2ccccc2)s1)c1cc(NCCN2CCCC2)nc(-c2ccccc2)n1 [Compound 19]
EC1.5: A (EC1.5≦1 uM) | Emax: 150 to 300%

Structure (SMILES): O=C(Nc1ccccc1-c1ncc(-c2ccccc2)s1)c1cc(N2CCNCC2)nc(-c2ccccc2)n1 [Compound 18]
EC1.5: A (EC1.5≦1 uM) | Emax: 150 to 300%

Structure (SMILES): CN(C)CCNc1cc(C(=O)Nc2ccccc2-c2ccccn2)nc(-c2ccccc2)n1 [Compound 28]
EC1.5: B (EC1.5>1 and ≦10 uM) | Emax: ≥ 300%

Structure (SMILES): CN(C)CCNc1cc(C(=O)Nc2ccccc2-c2nnc(C3CCC3)s2)nc(-c2ccccc2)n1 [Compound 48]
EC1.5: B (EC1.5>1 and ≦10 uM) | Emax: 150 to 300%

More lines, now with the values ahead:

EC1.5: A (EC1.5≦1 uM) | Emax: ≥ 300%
Structure (SMILES): CN(C)CCNc1cc(C(=O)Nc2ccccc2C(=O)Nc2cccc(S(C)(=O)=O)c2)nc(-c2ccccc2)n1 [Compound 154, 6-(2-(dimethylamino)ethylamino)-N-(2-(3-(methylsulfonyl)phenylcarbamoyl)phenyl)-2-phenylpyrimidine-4-carboxamide]

EC1.5: C (EC1.5>10 uM) | Emax: 150 to 300%
Structure (SMILES): CN(C)CCNc1cc(C(=O)Nc2ccccc2C(=O)Nc2ccc(Cl)c(Cl)c2)nc(-c2ccccc2)n1 [Compound 153, N-(2-(3,4-dichlorophenylcarbamoyl)phenyl)-6-(2-(dimethylamino)ethylamino)-2-phenylpyrimidine-4-carboxamide]

EC1.5: A (EC1.5≦1 uM) | Emax: 150 to 300%
Structure (SMILES): CN(C)CCNc1cc(C(=O)Nc2ccccc2C(=O)Nc2ccc(C(N)=O)cc2)nc(-c2ccccc2)n1 [Compound 157, N-(2-(4-carbamoylphenylcarbamoyl)phenyl)-6-(2-(dimethylamino)ethylamino)-2-phenylpyrimidine-4-carboxamide]

EC1.5: A (EC1.5≦1 uM) | Emax: ≥ 300%
Structure (SMILES): CCN(CCOC)c1cc(C(=O)Nc2ccccc2-c2ncc(C(C)(C)C)o2)nc(-c2ccccc2)c1 [Compound 85]

EC1.5: A (EC1.5≦1 uM) | Emax: 150 to 300%
Structure (SMILES): CN(C)CCNc1cc(C(=O)Nc2ccccc2C(=O)Nc2ccccn2)nc(-c2ccccc2)n1 [Compound 158, 6-(2-(dimethylamino)ethylamino)-2-phenyl-N-(2-(pyridin-2-ylcarbamoyl)phenyl)pyrimidine-4-carboxamide]

EC1.5: A (EC1.5≦1 uM) | Emax: ≥ 300%
Structure (SMILES): CN(C)CCNc1cc(C(=O)Nc2ccccc2C(=O)Nc2ccncc2)nc(-c2ccccc2)n1 [Compound 156, 6-(2-(dimethylamino)ethylamino)-2-phenyl-N-(2-(pyridin-4-ylcarbamoyl)phenyl)pyrimidine-4-carboxamide]

EC1.5: B (EC1.5>1 and ≦10 uM) | Emax: ≥ 300%
Structure (SMILES): CC(C)(C)c1cnc(-c2ccccc2NC(=O)c2cc(OC[C@@H](O)CO)cc(-c3ccccc3)n2)s1 [Compound 75]

EC1.5: A (EC1.5≦1 uM) | Emax: ≥ 300%
Structure (SMILES): CCN(CCN(C)C)c1cc(C(=O)Nc2ccccc2C(=O)NC2CCNC2)nc(-c2ccccc2)n1 (stereo not shown) [Compound 175, 6-((2-(dimethylamino)ethyl)(ethyl)amino)-2-phenyl-N-(2-(pyrrolidin-3-ylcarbamoyl)phenyl)pyrimidine-4-carboxamide]

EC1.5: A (EC1.5≦1 uM) | Emax: 150 to 300%
Structure (SMILES): CCN(CCN(C)C)c1cc(C(=O)Nc2ccccc2-c2ncc(C(C)(C)C)s2)nc(-c2ccccc2)n1 [Compound 63]

EC1.5: B (EC1.5>1 and ≦10 uM) | Emax: 150 to 300%
Structure (SMILES): CN(C)CCNc1cc(C(=O)Nc2ccccc2Br)nc(-c2ccccc2)n1 [Compound 136]

EC1.5: C (EC1.5>10 uM) | Emax: 150 to 300%
Structure (SMILES): CC(O)c1ccccc1NC(=O)c1cc(NCCN(C)C)nc(-c2ccccc2)n1 (stereo not shown) [Compound 133]

EC1.5: A (EC1.5≦1 uM) | Emax: ≥ 300%
Structure (SMILES): O=C(Nc1ccccc1-c1nnc(N2CCOCC2)s1)c1cc(OC[C@H](O)CO)nc(-c2ccccc2)n1 [Compound 109]

EC1.5: A (EC1.5≦1 uM) | Emax: ≥ 300%
Structure (SMILES): CN(C)CCNc1cc(C(=O)Nc2ccccc2-c2nnc(-c3ccncc3)s2)nc(-c2ccccc2)n1 [Compound 78]

EC1.5: A (EC1.5≦1 uM) | Emax: ≥ 300%
Structure (SMILES): CN(C)CCNc1cc(C(=O)Nc2ccccc2C(=O)Nc2ccccc2C(N)=O)nc(-c2ccccc2)n1 [Compound 150, N-(2-(2-carbamoylphenylcarbamoyl)phenyl)-6-(2-(dimethylamino)ethylamino)-2-phenylpyrimidine-4-carboxamide]

EC1.5: A (EC1.5≦1 uM) | Emax: ≥ 300%
Structure (SMILES): CCN(CCN(C)C)c1cc(C(=O)Nc2ccccc2-c2nnc(NS(C)(=O)=O)s2)nc(-c2ccccc2)n1 [Compound 98]

EC1.5: A (EC1.5≦1 uM) | Emax: ≥ 300%
Structure (SMILES): CN(C)CCNc1cc(C(=O)Nc2ccccc2C(=O)Nc2cccc(C(N)=O)c2)nc(-c2ccccc2)n1 [Compound 147, N-(2-(3-carbamoylphenylcarbamoyl)phenyl)-6-(2-(dimethylamino)ethylamino)-2-phenylpyrimidine-4-carboxamide]

EC1.5: B (EC1.5>1 and ≦10 uM) | Emax: 150 to 300%
Structure (SMILES): CCN(CC)C(=O)c1ccccc1NC(=O)c1cc(NCCN(C)C)nc(-c2ccccc2)n1 [Compound 124, N-(2-(diethylcarbamoyl)phenyl)-6-(2-(dimethylamino)ethylamino)-2-phenylpyrimidine-4-carboxamide]

EC1.5: A (EC1.5≦1 uM) | Emax: ≥ 300%
Structure (SMILES): CCN(CCN(C)C)c1cc(C(=O)Nc2ccccc2-c2nnc(N3CCOCC3)s2)nc(-c2ccccc2)n1 [Compound 105]

EC1.5: A (EC1.5≦1 uM) | Emax: 150 to 300%
Structure (SMILES): CC(=O)c1ccccc1NC(=O)c1cc(N2CCOCC2)nc(-c2ccccc2)n1 [Compound 134]
